The source of these data is patent US8445510B2, “Fused bicyclic kinase inhibitors” (OSI Pharmaceuticals, LLC, priority 2011, dated 2013).

Structures are written as SMILES. A value given as a limit tells only on which side of the number the result lay.

For this test, the target named is c-MET (Homo sapiens, UniProt P08581). The test can be described thus: MET cell mechanistic assay (MKN45), phosphorylated MET ELISA. The settings on record: MKN45 cell line; inhibition of phosphorylated MET; 4 hours incubation; at least duplicate experiments; read-out: MET mech IC50. The format is cell-based. The protocol: The cellular activity of the compounds of the present invention against c-MET may be determined by the following procedure. MKN45 cells were plated in Falcon 3072 96-well plates in growth media (RPMI, 10% FBS, 1% L-glutamine) at a density of 5000 cells/well and incubated at 37° C., 5% CO2 overnight. The following day, one-tenth volume of a 10× concentration of compounds was added to the wells in a 6-point dilution series. The dilutions series was composed of an initial 1:5 dilution in DMSO, followed by a 1:10 dilution in growth media, for a final DMSO concentration on cells of 0.5%. Control wells were treated with 0.5% DMSO. The typical range of dilution was 10 μM to 3 nM. Once compound was added to the cells, plates were incubated for 4 hours at 37° C., 5% CO2. Plates were then washed in PBS, and lysed in triton-based lysis buffer. Lysates were transferred to a precoated capture plate made by Biosource (Cat # KHO0281). The phosphorylated MET levels were measured by incubating with a rabbit polyclonal antibody against phosphorylated MET ([pYpYpY1230/1234/1235]) followed by an anti-rabbit antibody conjugated to HRP. Signal was measured on a Wallac Victor plate reader at 450 nm. The DMSO signal of the control wells was defined as 100% and the percent of inhibition of phosphorylated MET was expressed as percent of control. IC50 values were determined from the percent of control data using a standard four-parameter model.
c-MET, sequence (P08581 25-1390): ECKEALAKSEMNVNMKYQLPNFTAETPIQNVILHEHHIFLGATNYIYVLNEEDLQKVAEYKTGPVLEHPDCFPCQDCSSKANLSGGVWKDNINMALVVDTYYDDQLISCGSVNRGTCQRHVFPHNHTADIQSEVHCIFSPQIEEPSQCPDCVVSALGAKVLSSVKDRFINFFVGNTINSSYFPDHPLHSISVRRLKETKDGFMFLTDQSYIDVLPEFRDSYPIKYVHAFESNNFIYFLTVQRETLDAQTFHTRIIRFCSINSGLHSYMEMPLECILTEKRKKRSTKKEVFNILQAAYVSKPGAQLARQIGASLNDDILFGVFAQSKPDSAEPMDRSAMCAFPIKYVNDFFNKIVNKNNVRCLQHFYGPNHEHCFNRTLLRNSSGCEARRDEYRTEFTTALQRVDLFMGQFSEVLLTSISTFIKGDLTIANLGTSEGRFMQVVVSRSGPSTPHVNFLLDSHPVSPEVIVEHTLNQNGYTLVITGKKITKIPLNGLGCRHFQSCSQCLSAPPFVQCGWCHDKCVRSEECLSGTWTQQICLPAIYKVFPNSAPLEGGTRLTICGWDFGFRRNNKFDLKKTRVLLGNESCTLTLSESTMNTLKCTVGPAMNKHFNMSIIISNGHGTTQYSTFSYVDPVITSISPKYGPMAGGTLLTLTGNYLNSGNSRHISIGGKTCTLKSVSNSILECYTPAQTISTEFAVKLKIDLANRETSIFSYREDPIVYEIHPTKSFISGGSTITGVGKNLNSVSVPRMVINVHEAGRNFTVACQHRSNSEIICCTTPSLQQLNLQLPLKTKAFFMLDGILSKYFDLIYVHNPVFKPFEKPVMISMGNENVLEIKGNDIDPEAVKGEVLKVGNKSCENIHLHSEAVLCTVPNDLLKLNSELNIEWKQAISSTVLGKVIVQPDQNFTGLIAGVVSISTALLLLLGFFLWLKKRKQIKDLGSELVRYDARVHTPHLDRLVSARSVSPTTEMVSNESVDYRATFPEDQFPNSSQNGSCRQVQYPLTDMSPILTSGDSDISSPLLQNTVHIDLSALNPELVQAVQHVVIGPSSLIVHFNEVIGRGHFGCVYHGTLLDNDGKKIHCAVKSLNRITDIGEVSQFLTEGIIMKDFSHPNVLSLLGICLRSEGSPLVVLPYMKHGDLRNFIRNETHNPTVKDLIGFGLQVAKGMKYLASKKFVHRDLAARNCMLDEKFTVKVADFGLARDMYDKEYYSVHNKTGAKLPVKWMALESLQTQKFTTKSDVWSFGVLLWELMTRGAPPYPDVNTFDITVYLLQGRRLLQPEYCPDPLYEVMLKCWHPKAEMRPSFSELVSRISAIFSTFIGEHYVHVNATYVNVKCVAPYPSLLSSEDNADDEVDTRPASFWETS
The IC50 values of exemplary compounds of the present invention determined in a MET cell mechanistic assay using the MKN45 cell line according to the procedures described herein in at least duplicate experiments are abbreviated as follows and are shown in Table 1: A, IC50≦0.05 μM; B, 0.05 μM<IC50≦0.2 μM; C, 0.2 μM<IC50≦1 μM; D, IC50>1 μM; ND, not determined. The Example # of Table 1 corresponds to the compound example number as illustrated in the Examples section.
Treatment of this cell line with a selective c-MET inhibitor led to induction of apoptosis and inhibition of proliferation, whereas non-MET-amplified cell lines were not affected [Smolen et al., Proc. Natl. Acad. Sci. USA, 103(7):2316-2321 (2006)]. This cell line is thus “driven” by c-MET, and antiproliferative effects correlate very well with the inhibition of c-MET phosphorylation so that the cell proliferation IC50, values can be used as surrogate for the c-MET cell mechanistic IC50, values. Under the assay conditions described herein, the IC50 values correlate nearly 1:1.
In general terms: An ELISA detects its analyte on a solid surface through an enzyme-linked reagent.
`COc1ccc(F)c(Cl)c1[C@@H](C)c1c[nH]c2ncc(-c3cnn([C@H]4CC[C@H](O)CC4)c3C)cc12` [Example 27, trans-4-(4-{3-[(1S)-1-(2-Chloro-3-fluoro-6-methoxyphenyl)ethyl]-1H-pyrrolo[2,3-b]pyridin-5-yl}-5-methyl-1H-pyrazol-1-yl)cyclohexanol]: the IC50 (usually the concentration that gives 50% inhibition) was not above 0.05 µM.
Turning to `Cc1c(-c2cnc3[nH]cc([C@H](C)c4c(OC(F)F)ccc(F)c4Cl)c3c2)cnn1[C@H]1CC[C@H](O)CC1` [Example 74, trans-4-[4-(3-{(1S)-1-[2-Chloro-6-(difluoromethoxy)-3-fluorophenyl]ethyl}-1H-pyrrolo[2,3-b]pyridin-5-yl)-5-methyl-1H-pyrazol-1-yl]cyclohexanol], the IC50 is not above 0.05 µM.
In the case of `Cc1c(-c2cnc3[nH]cc([C@H](C)c4c(OC(F)F)ccc(F)c4Cl)c3c2)cnn1C1CCNCC1` [Example 96, 3-{(1S)-1-[2-Chloro-6-(difluoromethoxy)-3-fluorophenyl]ethyl}-5-[5-methyl-1-(piperidin-4-yl)-1H-pyrazol-4-yl]-1H-pyrrolo[2,3-b]pyridine] it was not above 0.05 µM; in that of `CC(=O)N1CCC(n2ncc(-c3cnc4[nH]cc([C@H](C)c5c(OC(F)F)ccc(F)c5Cl)c4c3)c2C)CC1` [Example 97, 1-{4-[4-(3-{(1S)-1-[2-Chloro-6-(difluoromethoxy)-3-fluorophenyl]ethyl}-1H-pyrrolo[2,3-b]pyridin-5-yl)-5-methyl-1H-pyrazol-1-yl]piperidin-1-yl}ethanone], not above 0.05 µM; in that of `COc1ccc(F)c(Cl)c1[C@@H](C)c1c[nH]c2ncc(-c3cn([C@H]4CC[C@H](O)CC4)nc3OC)cc12` [Example 99, trans-4-(4-{3-[(1S)-1-(2-chloro-3-fluoro-6-methoxyphenyl)ethyl]-1H-pyrrolo[2,3-b]pyridin-5-yl}-3-methoxy-1H-pyrazol-1-yl)cyclohexanol], not above 0.05 µM.
For `COc1nn([C@H]2CC[C@H](O)CC2)cc1-c1cnc2[nH]cc([C@H](C)c3c(OC(F)F)ccc(F)c3Cl)c2c1` [Example 100, trans-4-[4-(3-{(1S)-1-[2-chloro-6-(difluoromethoxy)-3-fluorophenyl]ethyl}-1H-pyrrolo[2,3-b]pyridin-5-yl)-3-methoxy-1H-pyrazol-1-yl]cyclohexanol], the concentration for half-maximal inhibition (IC50) was not above 0.05 µM.
Regarding `CCOc1ccc(F)c(Cl)c1[C@@H](C)c1c[nH]c2ncc(-c3cnn([C@H]4CC[C@H](O)CC4)c3C)cc12` [Example 103, trans-4-(4-{3-[(1S)-1-(2-Chloro-6-ethoxy-3-fluorophenyl)ethyl]-1H-pyrrolo[2,3-b]pyridin-5-yl}-5-methyl-1H-pyrazol-1-yl)cyclohexanol], the half-inhibitory concentration (IC50) was not above 0.05 µM.
As for `COc1ccc(F)c(Cl)c1[C@@H](CF)c1c[nH]c2ncc(-c3cnn([C@H]4CC[C@H](O)CC4)c3C)cc12` [Example 121, trans-4-(4-{3-[(1S)-1-(2-Chloro-3-fluoro-6-methoxyphenyl)-2-fluoroethyl]-1H-pyrrolo[2,3-b]pyridin-5-yl}-5-methyl-1H-pyrazol-1-yl)cyclohexanol], the IC50 was not above 0.05 µM.
Next, `Cc1c(-c2cnc3[nH]cc([C@@H](CF)c4c(OC(F)F)ccc(F)c4Cl)c3c2)cnn1[C@H]1CC[C@H](O)CC1` [Example 123, trans-4-[4-(3-{(1R)-1-[2-chloro-6-(difluoromethoxy)-3-fluorophenyl]-2-fluoroethyl}-1H-pyrrolo[2,3-b]pyridin-5-yl)-5-methyl-1H-pyrazol-1-yl]cyclohexanol]: 0.2 to 1 µM; `Cc1c(-c2cnc3[nH]cc([C@H](CF)c4c(OC(F)F)ccc(F)c4Cl)c3c2)cnn1[C@H]1CC[C@H](O)CC1` [Example 124, trans-4-[4-(3-{(1S)-1-[2-chloro-6-(difluoromethoxy)-3-fluorophenyl]-2-fluoroethyl}-1H-pyrrolo[2,3-b]pyridin-5-yl)-5-methyl-1H-pyrazol-1-yl]cyclohexanol]: not above 0.05 µM.
On to `C[C@H](c1c(OC(F)F)ccc(F)c1Cl)c1c[nH]c2ncc(-c3cnc(N4CCC(O)CC4)n3C)cc12` [Example 125, 1-[5-(3-{(1S)-1-[2-Chloro-6-(difluoromethoxy)-3-fluorophenyl]ethyl}-1H-pyrrolo[2,3-b]pyridin-5-yl)-1-methyl-1H-imidazol-2-yl]piperidin-4-ol], for which the half-inhibitory concentration (IC50) is not above 0.05 µM.
Next, `C[C@H](c1c(OC(F)F)ccc(F)c1Cl)c1c[nH]c2ncc(-c3cnc([C@H]4CC[C@H](O)CC4)n3C)cc12` [Example 126, trans-4-[5-(3-{(1S)-1-[2-Chloro-6-(difluoromethoxy)-3-fluorophenyl]ethyl}-1H-pyrrolo[2,3-b]pyridin-5-yl)-1-methyl-1H-imidazol-2-yl]cyclohexanol]: not above 0.05 µM.
